{
  "source": "PubChem BioAssay AID504626",
  "about": "(Southern Research Specialized Biocontainment Screening …, 2011)",
  "test_system": "human PBMC, CCR5-tropic HIV-1 replication, RT activity",
  "experiment": "inhibitors of CCR5-tropic HIV-1 replication in PBMCs, dose response, cell-based, human PBMC, R5-tropic strain, set 3 (AID 504626)",
  "data": [
    {"smiles": "Cc1c2c(=O)n(-c3nc4ccccc4s3)nc-2cc(O)n1Cc1ccccc1", "values": [
      {"measurement": "IC50", "result": 1570, "unit": "nM"}
    ]}
  ]
}
